Measurements as given in patent publication US9969723B2, “3-(4-(benzyloxy)phenyl)hex-4-ynoic acid derivative, method of preparing same and pharmaceutical composition for preventing and treating metabolic disease including same as effective ingredient” (HYUNDAI PHARM CO., LTD, priority 2014, dated 2018).

Legend:
[1] = system: Male Goto-Kakizaki (GK) rats, the type II diabetes animal model (not obesity); experiment: Oral glucose tolerance test (OGTT) 2; format: in vivo, rat
Procedure: (§1) Male Goto-Kakizaki (GK) rats at 22˜23 weeks, the type II diabetes animal model (not obesity), were adapted at least for 7 days. Only healthy animals were selected thereafter, followed by OGTT. After fasting for 16˜18 hours, 5 rats per group were randomly selected and orally administered with the compounds prepared in Examples 5, 9, 14, 28, 37, and 47 at the dose of 0.3˜10 mg/kg. At this time, 5% polyethyleneglycol (PEG) was orally administered at the same dose to the non-treated group rats. 60 minutes after the sample administration, glucose (4 g/kg) was orally administered thereto at the dose of 5 ml/kg. Then, blood glucose was measured by using Accu-chek active strip (Roche diagnostic Co.). The time for the measurement was set at 60 minutes before the glucose administration (−60), 0 minute, 20 minutes, 40 minutes, 60 minutes, and 120 minutes after the glucose administration, and blood glucose was measured through tail vein puncture.

CYP2C9 = CYP2C9 (Homo sapiens (Human), UniProt P11712); experiment: CYP inhibition (BD GENTEST kit); format: in vitro ADME; settings: CYP2C9 enzyme of the BD GENTEST CYP2C9 inhibition kit, pH 7.4, read-out: CYP inhibition (%) 2C9
CYP2C9, sequence (P11712 whole entry): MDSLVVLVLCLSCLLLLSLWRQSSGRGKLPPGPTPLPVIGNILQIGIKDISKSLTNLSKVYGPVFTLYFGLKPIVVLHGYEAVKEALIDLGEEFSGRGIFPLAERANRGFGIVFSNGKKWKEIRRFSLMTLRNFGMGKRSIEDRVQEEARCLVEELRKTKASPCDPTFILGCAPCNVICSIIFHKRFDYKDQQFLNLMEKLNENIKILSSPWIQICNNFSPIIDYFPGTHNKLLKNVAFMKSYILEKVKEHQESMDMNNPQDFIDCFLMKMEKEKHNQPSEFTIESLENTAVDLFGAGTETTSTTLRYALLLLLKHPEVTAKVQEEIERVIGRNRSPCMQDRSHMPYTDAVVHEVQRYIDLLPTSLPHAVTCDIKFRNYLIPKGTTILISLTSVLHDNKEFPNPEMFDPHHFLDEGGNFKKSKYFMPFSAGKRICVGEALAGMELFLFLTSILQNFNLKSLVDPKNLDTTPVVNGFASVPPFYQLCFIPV
Procedure: (§2) CYP is the enzyme involved in drug metabolism. So, the inhibition of this enzyme can change the prediction of dose of a drug and toxicity caused by the co-treatment with other drugs. Therefore, the inventors measured the inhibitory effect of the compounds of Examples of the invention on endogenous CYP3A4, CYP2C9, CYP1A2, CYP2D6, and CYP2C19. […] To prepare the Invitrogen kit, the test sample was diluted in distilled water at 2.5× of the final experimental concentration.
(§3) The test sample for BD GENTEST kit was diluted in acetonitrile at 50× of the final experimental concentration. NADPH-coenzyme mixture was prepared by diluting the coenzyme, G6PDH, and regulatory protein included in the kit with distilled water at the concentration instructed by the kit. The prepared 50× sample (4 μL) and the NADPH-coenzyme mixture (96 μL) were mixed in each well of U-bottom 96-well plate, followed by pre-culture for 10 minutes in a 37° C. incubator. Enzyme/substrate mixed solution was prepared by diluting the buffer (0.5 M potassium phosphate, pH 7.4), each CYP450 enzyme/substrate mixed solution included in the kit with distilled water at the instructed concentration. Upon completion of the pre-culture, 100 μL of the enzyme/substrate mixed solution was added in each well of the plate, followed by culture in a 37° C. incubator for 15 minutes (CYP 1A2), 30 minutes (CYP 3A4 and CYP 2C19) or 1 and half hours (CYP 2C9). […] The values obtained above were converted into % as the inhibition rate of the sample by the value of the non-treated group.

CYP2C19 = CYP2C19 (Homo sapiens (Human), UniProt P33261); experiment: CYP inhibition (BD GENTEST kit); format: in vitro ADME; settings: CYP2C19 enzyme of the BD GENTEST CYP2C19 inhibition kit, pH 7.4, read-out: CYP inhibition (%) 2C19
CYP2C19, sequence (P33261 whole entry): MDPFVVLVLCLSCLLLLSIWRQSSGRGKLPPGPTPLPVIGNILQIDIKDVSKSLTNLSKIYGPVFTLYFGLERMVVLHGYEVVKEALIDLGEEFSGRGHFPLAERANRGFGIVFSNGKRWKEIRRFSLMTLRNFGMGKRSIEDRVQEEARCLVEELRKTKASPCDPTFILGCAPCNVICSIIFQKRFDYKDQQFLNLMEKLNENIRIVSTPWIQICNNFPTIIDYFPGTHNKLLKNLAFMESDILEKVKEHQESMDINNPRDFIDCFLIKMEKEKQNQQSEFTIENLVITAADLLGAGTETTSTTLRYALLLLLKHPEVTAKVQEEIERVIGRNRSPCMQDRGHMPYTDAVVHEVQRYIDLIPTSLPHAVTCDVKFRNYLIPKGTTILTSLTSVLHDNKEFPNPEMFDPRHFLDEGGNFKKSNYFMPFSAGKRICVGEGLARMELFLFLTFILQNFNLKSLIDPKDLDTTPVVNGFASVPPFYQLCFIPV
Procedure: as §2, §3

CYP2D6 = CYP2D6 (Homo sapiens (Human), UniProt P10635); experiment: CYP inhibition (Invitrogen Vivid kit); format: in vitro ADME; settings: CYP2D6 P450 BACULOSOMES reagent (Invitrogen kit P2862), probe Vivid CYP450 substrate, read-out: CYP inhibition (%) 2D6
CYP2D6, sequence (P10635 whole entry): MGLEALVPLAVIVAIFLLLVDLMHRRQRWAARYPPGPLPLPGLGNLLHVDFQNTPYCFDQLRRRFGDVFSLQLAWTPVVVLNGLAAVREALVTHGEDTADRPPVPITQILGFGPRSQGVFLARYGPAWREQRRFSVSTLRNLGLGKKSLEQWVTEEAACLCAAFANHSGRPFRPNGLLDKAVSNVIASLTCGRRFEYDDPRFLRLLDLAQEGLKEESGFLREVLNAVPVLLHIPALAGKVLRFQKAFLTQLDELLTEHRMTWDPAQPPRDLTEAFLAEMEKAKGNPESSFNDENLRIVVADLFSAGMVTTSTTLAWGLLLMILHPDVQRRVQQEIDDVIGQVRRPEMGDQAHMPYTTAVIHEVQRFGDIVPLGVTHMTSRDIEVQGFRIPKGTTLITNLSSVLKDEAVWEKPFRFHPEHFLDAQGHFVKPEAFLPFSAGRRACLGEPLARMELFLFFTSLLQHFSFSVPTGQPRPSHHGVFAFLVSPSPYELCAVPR
Source text: (§4) CYP is the enzyme involved in drug metabolism. So, the inhibition of this enzyme can change the prediction of dose of a drug and toxicity caused by the co-treatment with other drugs. Therefore, the inventors measured the inhibitory effect of the compounds of Examples of the invention on endogenous CYP3A4, CYP2C9, CYP1A2, CYP2D6, and CYP2C19. At this time, Invitrogen (P2862) was used as the CYP2D6 inhibition kit, and BD GENTEST (459100, 459300, 459400, 459500) was used as the CYP1A2, CYP2C9, CYP2C19, and CYP3A4 inhibition kit. To prepare the Invitrogen kit, the test sample was diluted in distilled water at 2.5× of the final experimental concentration.
P450 BACULOSOMES® reagent and reproducer (100×) included in Invitrogen kit were diluted in Vivid® CYP450 reaction buffer (2×) at the concentration that matched the target CYP450. The prepared 2.5× sample (80 μL) and the diluted P450 BACULOSOMES® reagent mixture (100 μL) were mixed in each well of U-bottom 96-well plate, followed by pre-culture for 20 minutes. Vivid® CYP450 substrate and NADP+ (100×) were diluted in Vivid® CYP450 reaction buffer (2×) at the concentration that matched the target CYP450 and the substrate. Upon completion of the pre-culture, substrate-NADP (nicotinamide adenine dinucleotide phosphate) mixed solution (20 μL) was added thereto, followed by reaction for 1 hour. Upon completion of the reaction, the reactant was transferred onto the white plate, and then fluorescence was measured with a microplate reader (CYP 2D6 excitation wavelength: 400 nm, absorption wavelength: 502 nm). […]

GPR40 = GPR40 (Homo sapiens (Human), UniProt O14842); experiment: Calcium flux GPCR agonist assay (Millipore GPCR profiler, FLIPR TETRA)
GPR40, sequence (O14842 whole entry): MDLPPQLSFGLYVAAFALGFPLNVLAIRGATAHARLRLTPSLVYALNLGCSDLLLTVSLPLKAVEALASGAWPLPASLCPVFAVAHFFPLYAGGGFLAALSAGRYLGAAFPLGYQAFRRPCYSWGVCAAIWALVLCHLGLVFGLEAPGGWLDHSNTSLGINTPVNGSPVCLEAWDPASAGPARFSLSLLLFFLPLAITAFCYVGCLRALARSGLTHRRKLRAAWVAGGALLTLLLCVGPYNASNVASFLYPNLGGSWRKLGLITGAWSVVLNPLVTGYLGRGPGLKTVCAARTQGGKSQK
Procedure: The compounds of Examples of the invention dissolved in DMSO (dimethyl sulfoxide), PBS (phosphate buffered saline), and DW (distilled water), etc, were diluted three-times with EMD Millipore's GPCR profiler assay buffer. […] Each well was filled with EMD Millipore's GPCR profiler assay buffer. The said EMD Millipore's GPCR profiler assay buffer was HBSS (Hanks Balanced Salt Solution) containing 20 mM HEPES (4-(2-hydroxyethyl)-1-piperazineethanesulfonic acid) and 2.5 mM Probenecid (4-(dipropylsulfamoyl)benzoic acid), whose pH was regulated as 7.4.
The compounds of Examples were duplicated at each concentration. […] Agonist assay was performed by using FLIPR^TETRA. Fluorescence and luminescence baseline were measured. […] To measure the activity of those compounds of Examples, GPCR activity assay was performed for 180 seconds.
When the assay data were not satisfactory, an additional experiment was performed.
All the concentration dependent graphs were made by using GraphPad Prism. The graph was modified by Sigmoidal dose response.

CYP3A4 = CYP3A4 (Homo sapiens (Human), UniProt P08684); experiment: CYP inhibition (BD GENTEST kit); format: in vitro ADME; settings: CYP3A4 enzyme of the BD GENTEST CYP3A4 inhibition kit, pH 7.4, read-out: CYP inhibition (%) 3A4
CYP3A4, sequence (P08684 whole entry): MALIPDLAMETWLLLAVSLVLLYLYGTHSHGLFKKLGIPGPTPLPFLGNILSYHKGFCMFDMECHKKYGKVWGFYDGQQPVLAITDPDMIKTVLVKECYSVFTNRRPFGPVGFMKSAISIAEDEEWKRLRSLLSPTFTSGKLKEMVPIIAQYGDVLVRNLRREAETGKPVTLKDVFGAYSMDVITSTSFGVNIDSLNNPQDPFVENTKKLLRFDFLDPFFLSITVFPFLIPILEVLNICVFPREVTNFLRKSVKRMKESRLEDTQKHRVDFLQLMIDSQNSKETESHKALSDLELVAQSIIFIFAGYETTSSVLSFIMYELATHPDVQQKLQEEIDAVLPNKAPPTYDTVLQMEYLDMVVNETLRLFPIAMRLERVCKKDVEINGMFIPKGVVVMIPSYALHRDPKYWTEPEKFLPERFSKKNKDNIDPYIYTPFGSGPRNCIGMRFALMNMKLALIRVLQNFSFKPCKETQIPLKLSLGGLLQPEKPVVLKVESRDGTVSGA
Source text: as §4
The test sample for BD GENTEST kit was diluted in acetonitrile at 50× of the final experimental concentration. NADPH-coenzyme mixture was prepared by diluting the coenzyme, G6PDH, and regulatory protein included in the kit with distilled water at the concentration instructed by the kit. The prepared 50× sample (4 μL) and the NADPH-coenzyme mixture (96 μL) were mixed in each well of U-bottom 96-well plate, followed by pre-culture for 10 minutes in a 37° C. incubator. Enzyme/substrate mixed solution was prepared by diluting the buffer (0.5 M potassium phosphate, pH 7.4), each CYP450 enzyme/substrate mixed solution included in the kit with distilled water at the instructed concentration. Upon completion of the pre-culture, 100 μL of the enzyme/substrate mixed solution was added in each well of the plate, followed by culture in a 37° C. incubator for 15 minutes (CYP 1A2), 30 minutes (CYP 3A4 and CYP 2C19) or 1 and half hours (CYP 2C9). Upon completion of the reaction, the reactant was transferred onto the white plate, and then fluorescence was measured with a microplate reader (CYP 1A2 and CYP 2C19 excitation wavelength: 410 nm, absorption wavelength: 460 nm; CYP 2C9 and CYP 3A4 excitation wavelength: 409 nm, absorption wavelength: 530 nm). The values obtained above were converted into % as the inhibition rate of the sample by the value of the non-treated group.

[2] = system: Male OLETF (Otsuka Long-Evans Tokushima fatty) rats, the type II diabetes animal model (obesity); experiment: Oral glucose tolerance test (OGTT) 3; format: in vivo, rat
Procedure: as §1, with “OLETF (Otsuka Long-Evans Tokushima fatty)” for “Goto-Kakizaki (GK)”, “29˜30” for “22˜23”, “(obesity),” for “(not obesity),”, “1˜10” for “0.3˜10”

[3] = oral dose 10 mg/kg, values in text

inhibition at 1.5 h, 10 µM (CYP2C9): 47.1% | inhibition at 30 min, 10 µM (CYP2C19): 3.7% | inhibition at 1 h, 10 µM (CYP2D6): 13.9% | EC50 (GPR40): < 1 nM | inhibition at 30 min, 10 µM (CYP3A4): 15.5%
SMILES: CC#C[C@@H](CC(=O)O)c1ccc(OCc2cccc(C3=CCC4(CC3)OCCO4)c2)cc1 [Example 9, L-lysine (3S)-3-(4-(3-(1,4-dioxaspiro[4,5]dec-7-en-8-yl)benzyloxy)phenyl)hex-4-ynoate]
% AUC ([1]; oral dose 0.3 mg/kg): C (under 25.0%) | % AUC ([1]; oral dose 1 mg/kg): C (under 25.0%) | % AUC ([1]; oral dose 3 mg/kg): A (over 35.0%) | % AUC ([1]; oral dose 10 mg/kg): A (over 35.0%) | hypoglycemic effect by that of the non-treated group [1, 3]: more than 35.0% | % AUC ([2]; oral dose 1 mg/kg): B (25.0-35.0%) | % AUC ([2]; oral dose 3 mg/kg): A (over 35.0%) | % AUC ([2]; oral dose 10 mg/kg): A (over 35.0%) | hypoglycemic effect compared with the non-treated group [2, 3]: more than 35.0%
